According to patent US11109593B2, “Isoxazolin-5-one derivative and herbicide containing same as active ingredient” (HOKKO CHEMICAL INDUSTRY CO., LTD., priority 2017, dated 2021):

Tests used:
Format in all cases: in vivo
Scirpus juncoides [1] = assay: Test Example 2: herbicidal effect test by treatment during growing period in paddy rice cultivation (seven days after seeding); conditions: for Herbicidal rate (%) Scirpus juncoides: 120 g/10a active ingredient, assessed 14 days after treatment, dry weight vs untreated area
Summary of the method: (§1)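 Herbicidal rate = (1 − treated/untreated mean dry weight) × 100, scored 14 days after application, two replicates per rate. Treatment: diluted emulsion dropped onto paddy water seven days after sowing, 120 g active ingredient per 10 ares, in a glass greenhouse.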

[2] = system: broad leaf weeds (Lindernia pyxidaria and Monochoria vaginalis); assay: as above; conditions: for Herbicidal rate (%) Lindernia pyxidaria / Herbicidal rate (%) Monochoria vaginalis: 120 g/10a active ingredient, assessed 14 days after treatment, dry weight vs untreated area
Summary of the method: as §1

Echinochloa crus-galli [3] = assay: as above; conditions: for Herbicidal rate (%) Echinochloa crus-galli: 120 g/10a active ingredient, assessed 14 days after treatment, dry weight vs untreated area
Summary of the method: as §1

Scirpus juncoides [4] = assay: Test Example 1: herbicidal effect test by treatment of rice paddy soil (immediately after seeding)
Summary of the method: (§2)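 Application occurs immediately after seeding, with diluted emulsion added to paddy water (about 3 cm deep) over puddled, fertilized soil at 120 g active ingredient per 10 ares. Herbicidal rate is calculated from mean dry weight against untreated controls 14 days later.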

[5] = system: broad leaf weeds (Lindernia pyxidaria and Monochoria vaginalis); assay: as above
Summary of the method: as §2

Echinochloa crus-galli [6] = assay: as above
Summary of the method: as §2

[7] = 120 g/10a active ingredient, dry weight vs untreated area, 14 days after treatment
[8] = Lindernia pyxidaria, 120 g/10a active ingredient, dry weight vs untreated area, 14 days after treatment
[9] = Monochoria vaginalis, 120 g/10a active ingredient, dry weight vs untreated area, 14 days after treatment
[10] = 120 g/10a, rated 14 days after treatment, paddy soil pots
[11] = 120 g/10a active ingredient, 14 days after treatment, dry weight vs untreated area

| SMILES | Herbicidal rate (%) Scirpus juncoides (Scirpus juncoides [1]) | Herbicidal rate (%) Lindernia pyxidaria ([2]; Lindernia pyxidaria) | Herbicidal rate (%) Monochoria vaginalis ([2]; Monochoria vaginalis) | Herbicidal rate (%) Echinochloa crus-galli (Echinochloa crus-galli [3]) | Herbicidal rate (%) Scirpus juncoides (Scirpus juncoides [4]; [7]) | Herbicidal rate (%) Lindernia pyxidaria [5, 8] | Herbicidal rate (%) Monochoria vaginalis [5, 9] | Herbicidal rate (%) Echinochloa crus-galli (Echinochloa crus-galli [6]; [7]) | herbicidal rate, Scirpus juncoides (Scirpus juncoides [1]; [10]) | herbicidal rate, Lindernia pyxidaria ([2]; Lindernia pyxidaria, 120 g/10a, rated 14 days after treatment, paddy soil pots) | herbicidal rate, Monochoria vaginalis ([2]; Monochoria vaginalis, 120 g/10a, rated 14 days after treatment, paddy soil pots) | herbicidal rate, Echinochloa crus-galli (Echinochloa crus-galli [3]; [10]) | Herbicidal rate (%) Scirpus juncoides (Scirpus juncoides [4]; [11]) | Herbicidal rate (%) Lindernia pyxidaria ([5]; Lindernia pyxidaria, 120 g/10a active ingredient, 14 days after treatment, dry weight vs untreated area) | Herbicidal rate (%) Monochoria vaginalis ([5]; Monochoria vaginalis, 120 g/10a active ingredient, 14 days after treatment, dry weight vs untreated area) | Herbicidal rate (%) Echinochloa crus-galli (Echinochloa crus-galli [6]; [11]) |
| --- | --- | --- | --- | --- | --- | --- | --- | --- | --- | --- | --- | --- | --- | --- | --- | --- |
| Cc1c(Cc2ccccc2NS(=O)(=O)C(F)(F)F)c(=O)on1Cc1cccc(F)c1 [Compound 1-182] | 70% | 60% | 60% | 40% | 100% | 100% | 90% | 90% |  |  |  |  |  |  |  |  |
| Cc1c(Cc2ccccc2NS(=O)(=O)C(F)(F)F)c(=O)on1Cc1ccc(Br)cc1 [Compound 1-187] | 70% | 70% | 80% | 40% | 80% | 90% | 90% | 90% |  |  |  |  |  |  |  |  |
| Cc1c(Cc2ccccc2NS(=O)(=O)C(F)(F)F)c(=O)on1Cc1ccc(F)c(F)c1 [Compound 1-200] | 80% | 90% | 90% | 60% | 90% | 100% | 100% | 90% |  |  |  |  |  |  |  |  |
| Cc1c(Cc2cc(F)ccc2NS(=O)(=O)C(F)(F)F)c(=O)on1Cc1ccccc1 [Compound 1-31] | 70% | 60% | 80% | 50% | 90% | 90% | 80% | 90% |  |  |  |  |  |  |  |  |
| Cc1c(Cc2ccccc2NS(=O)(=O)C(F)(F)F)c(=O)on1CCOCc1ccccc1 [Compound 1-238] | 80% | 40% | 80% | 80% | 80% | 80% | 80% | 100% |  |  |  |  |  |  |  |  |
| Cc1c(Cc2ccccc2NS(=O)(=O)C(F)(F)F)c(=O)on1Cc1ccc(SC(F)(F)F)cc1 [Compound 1-198] | 40% | 90% | 90% | 40% | 80% | 100% | 100% | 80% |  |  |  |  |  |  |  |  |
| Cc1c(Cc2ccccc2N(S(=O)(=O)C(F)(F)F)S(=O)(=O)C(F)(F)F)c(=O)on1Cc1ccsc1 [Compound 1-1055] |  |  |  |  |  |  |  |  | 80% | 40% | 60% | 80% | 90% | 100% | 100% | 60% |
| Cc1c(Cc2ccccc2N(S(=O)(=O)C(F)(F)F)S(=O)(=O)C(F)(F)F)c(=O)on1CC1CC1 [Compound 1-991] | 90% | 70% | 80% | 90% | 90% | 100% | 100% | 90% |  |  |  |  |  |  |  |  |
| Cc1c(Cc2ccccc2N(S(=O)(=O)C(F)(F)F)S(=O)(=O)C(F)(F)F)c(=O)on1Cc1ccc(OC(F)(F)F)cc1 [Compound 1-1023] | 40% | 40% | 40% | 40% | 50% | 40% | 50% | 50% |  |  |  |  |  |  |  |  |
| CCC(C)Cn1oc(=O)c(Cc2ccccc2N(C(=O)OCc2ccccc2)S(=O)(=O)C(F)(F)F)c1C (single isomer, unassigned) [1-788 (TLC top)] | 50% | 40% | 40% | 40% | 80% | 60% | 50% | 80% |  |  |  |  |  |  |  |  |
| Cc1c(Cc2c(Cl)cccc2N(S(=O)(=O)C(F)(F)F)S(=O)(=O)C(F)(F)F)c(=O)on1C(C)C [Compound 1-47] | 70% | 40% | 40% | 40% | 80% | 70% | 70% | 40% |  |  |  |  |  |  |  |  |
| Cc1ccc(Cn2oc(=O)c(Cc3ccccc3N(S(=O)(=O)C(F)(F)F)S(=O)(=O)C(F)(F)F)c2C)cc1 [Compound 1-1018] | 80% | 80% | 80% | 40% | 90% | 100% | 90% | 90% |  |  |  |  |  |  |  |  |
| Cc1c(Cc2ccccc2N(S(=O)(=O)C(F)(F)F)S(=O)(=O)C(F)(F)F)c(=O)on1C(C)c1ccc(OC(F)(F)F)cc1 (centres unmarked) [Compound 1-1036] | 60% | 60% | 60% | 40% | 70% | 60% | 60% | 70% |  |  |  |  |  |  |  |  |
| Cc1c(Cc2ccccc2NS(=O)(=O)C(F)(F)F)c(=O)on1Cc1ccc(C(C)(C)C)cc1 [Compound 1-192] | 60% | 80% | 80% | 40% | 40% | 100% | 100% | 90% |  |  |  |  |  |  |  |  |
| Cc1c(Cc2ccccc2NS(=O)(=O)C(F)(F)F)c(=O)on1Cc1ccc(C(F)(F)F)cc1 [Compound 1-194] | 60% | 60% | 60% | 40% | 80% | 100% | 80% | 80% |  |  |  |  |  |  |  |  |
| CCN(CC)C(=O)n1oc(=O)c(Cc2ccccc2N(C(=O)OCC(C)C)S(=O)(=O)C(F)(F)F)c1C [Compound 1-679] | 40% | 40% | 40% | 50% | 50% | 50% | 50% | 60% |  |  |  |  |  |  |  |  |
| Cc1c(Cc2ccccc2N(S(=O)(=O)C(F)(F)F)S(=O)(=O)C(F)(F)F)c(=O)on1Cc1ccc(F)cc1Cl [Compound 1-1028] | 0% | 40% | 40% | 0% | 40% | 80% | 90% | 80% |  |  |  |  |  |  |  |  |
| Cc1c(Cc2ccccc2NS(=O)(=O)C(F)(F)F)c(=O)on1CC(F)(F)c1ccccc1 [Compound 1-220] | 90% | 100% | 90% | 40% | 90% | 100% | 100% | 90% |  |  |  |  |  |  |  |  |
| Cc1c(Cc2ccccc2NS(=O)(=O)C(F)(F)F)c(=O)on1Cc1ccccc1F [Compound 1-181] | 90% | 80% | 90% | 50% | 90% | 100% | 90% | 90% |  |  |  |  |  |  |  |  |
